Test results reported in patent US20260193293A1, “PEPTIDES CAPABLE OF INHIBITING PROTEIN-PROTEIN INTERACTIONS AT GABAB1A SUBUNIT AND USES THEREOF” (UNIVERSITY OF COPENHAGEN, priority 2022, published 2026).
Like-named read-outs stand apart in the source and are kept apart here. Non-standard residues stand in square brackets, D forms with d. Residues, ends and D or L forms follow the SMILES beside them. NMeV = CN[C@H](C(=O)O)C(C)C

Molecular target: Sushi domains (SD1/2) protein
Assay: Fluorescence polarization (FP) competition assay with AJAP-1probe, calculated Ki
Format: binding
Method in brief: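 Ki values were derived from IC50s (sigmoidal fits, ≥ triplicate), with probe Kd obtained by saturation titration of SD1/2. Peptides displaced a 25 nM TAMRA-labelled probe; polarization read at 530/580 nm in 1% BSA-containing PBS, pH 7.4, room temperature.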

[1] = Table 12, deep mutational scanning validation variants of PIANPWT, read-out: Ki (nM) mean ± SEM
[2] = Table 13, peptides for affinity maturation, read-out: Ki (nM) mean ± SEM
[3] = Table 11, deep mutational scanning validation variants of AJAP-1WT, read-out: Ki (nM) mean ± SEM
[4] = CPP tagged peptides overview, SD1/2 binding affinity, mean ± SEM, n ≥ 3, read-out: Ki
[5] = Table 14, CPPs tagged peptides, read-out: Ki (nM) mean ± SEM

In the case of `CC[C@H](C)[C@H](NC(=O)[C@H](C)NC(=O)[C@H](Cc1c[nH]c2ccccc12)NC(=O)[C@@H](NC(C)=O)C(C)C)C(=O)N[C@H](C(=O)N[C@@H](Cc1c[nH]c2ccccc12)C(=O)NCC(=O)N1CCC[C@H]1C(=O)N[C@H](C(=O)N[C@H](C(=O)N[C@@H](CO)C(=O)N[C@@H](CCCNC(=N)N)C(=O)N[C@@H](CCC(=O)O)C(=O)N[C@@H](CC(=O)O)C(N)=O)C(C)C)[C@@H](C)O)C(C)C` [VWAIVWGPTVSRED] (Ac-VWAIVWGPTVSRED-NH2), the Ki [1] is reported as 412 ± 20 nM.
In the case of “ETEFlaWGPTGDED (Ac-ETEFI[dA]WGPTGDED-NH2)”, the Ki (Table 8, in μM, read-out: Ki (nM) mean ± SEM) is reported as > 6250 nM.
For `CC(=O)N[C@@H](CCC(=O)O)C(=O)N[C@@H](CC(=O)O)C(=O)N[C@@H](CC(=O)O)C(=O)N[C@@H](CO)C(=O)N[C@@H](CC(=O)O)C(=O)N(C)[C@H](C(=O)N[C@@H](Cc1c[nH]c2ccccc12)C(=O)N[C@@H](Cc1c[nH]c2ccccc12)C(=O)NCC(=O)NCC(=O)N[C@@H](C)C(=O)N[C@@H](CC(=O)O)C(=O)N[C@H](C(=O)N[C@@H](CC(=O)O)C(N)=O)[C@@H](C)O)C(C)C` (Ac-EDDSD[NMeV]WWGGADTD-NH2), the Ki (Table 7, Ala-, D-amino acids and N-methylation scans of APPWT, read-out: Ki (nM) mean ± SEM) was 12300 ± 375 nM.
With `CC[C@H](C)[C@H](NC(=O)[C@H](C)NC(=O)[C@H](CC(=O)O)NC(=O)[C@@H]1CCCN1C(C)=O)C(=O)N[C@H](C(=O)N[C@@H](Cc1c[nH]c2ccccc12)C(=O)NCC(=O)N1CCC[C@H]1C(=O)N[C@H](C(=O)N[C@H](C(=O)N[C@@H](CO)C(=O)N[C@@H](CCCNC(=N)N)C(=O)N[C@@H](CCC(=O)O)C(=O)N[C@@H](CC(=O)O)C(N)=O)C(C)C)[C@@H](C)O)C(C)C` [PDAIVWGPTVSRED] (Ac-PDAIVWGPTVSRED-NH2) the Ki [1] was 673 ± 7 nM.
In the case of `CC[C@H](C)[C@H](NC(=O)[C@H](Cc1ccccc1)NC(=O)[C@H](CCC(=O)O)NC(=O)[C@@H](NC(=O)[C@H](CCC(=O)O)NC(C)=O)[C@@H](C)O)C(=O)N[C@@H](C)C(=O)N[C@@H](Cc1c[nH]c2ccccc12)C(=O)N[C@@H](Cc1ccc(O)cc1)C(=O)NCC(=O)N1CCC[C@H]1C(=O)N[C@@H](C)C(=O)N[C@@H](CC(=O)O)C(=O)N[C@H](C(=O)N[C@@H](CC(=O)O)C(N)=O)[C@@H](C)O` (Ac-ETEFIAWYGPADTD-NH2), the Ki [2] is reported as 182 ± 2 nM.
`CC[C@H](C)[C@H](NC(=O)[C@H](Cc1ccccc1)NC(=O)[C@H](CCC(=O)O)NC(=O)[C@@H](NC(=O)[C@H](CCC(=O)O)NC(C)=O)[C@@H](C)O)C(=O)N[C@@H](C)C(=O)N[C@@H](Cc1c[nH]c2ccccc12)C(=O)NCC(=O)N1CCC[C@H]1C(=O)N[C@H](C(=O)NCC(=O)N[C@@H](CC(=O)O)C(=O)N[C@@H](Cc1ccccc1)C(=O)N[C@@H](CC(=O)O)C(N)=O)[C@@H](C)O` (Ac-ETEFIAWGPTGDFD-NH2) was tested, and the Ki [3] was 41 ± 2 nM.
`CC[C@H](C)[C@H](NC(=O)[C@H](Cc1c[nH]c2ccccc12)NC(=O)[C@H](CC(=O)O)NC(=O)[C@H](CC(=O)O)NC(=O)[C@H](CC(=O)O)NC(=O)[C@H](CCC(=O)O)NC(=O)[C@H](CO)NC(=O)CNC(=O)CNC(=O)CNC(=O)CNC(=O)[C@H](CCCNC(=N)N)NC(=O)[C@H](CCCNC(=N)N)NC(=O)[C@H](CCCNC(=N)N)NC(=O)[C@H](CCCNC(=N)N)NC(=O)[C@H](CCCNC(=N)N)NC(=O)[C@H](CCCNC(=N)N)NC(=O)[C@H](CCCNC(=N)N)NC(=O)[C@H](CCCNC(=N)N)NC(C)=O)C(=O)N[C@@H](CC(=O)O)C(=O)N[C@@H](Cc1c[nH]c2ccccc12)C(=O)NCC(=O)N1CCC[C@H]1C(=O)N[C@H](C(=O)N[C@@H](CO)C(=O)N[C@@H](CC(=O)O)C(=O)N[C@@H](CC(=O)O)C(=O)N[C@@H](CC(=O)O)C(N)=O)[C@@H](C)O` [Peptide R8-FL-17] (Ac-RRRRRRRRGGGGSEDDDWIDWGPTSDDD-NH2) showed a Ki [4] of 140 ± 4 nM and a Ki [5] of 140 ± 4 nM.
With `COc1ccc(C[C@H](NC(=O)[C@H](CO)NC(=O)[C@H](CC(=O)O)NC(=O)[C@H](CC(=O)O)NC(=O)[C@H](CCC(=O)O)NC(C)=O)C(=O)N[C@H](C(=O)N[C@@H](Cc2c[nH]c3ccccc23)C(=O)N[C@@H](Cc2c[nH]c3ccccc23)C(=O)NCC(=O)NCC(=O)N[C@@H](C)C(=O)N[C@@H](CC(=O)O)C(=O)N[C@H](C(=O)N[C@@H](CC(=O)O)C(N)=O)[C@@H](C)O)C(C)C)cc1` (Ac-EDDSY(Me)VWWGGADTD-NH2) the Ki (Table 16, ncAAs incorporated peptides, read-out: Ki (nM) mean ± SEM) was 101 ± 4 nM.
Work on `CC[C@H](C)[C@H](NC(=O)[C@H](Cc1ccccc1)NC(=O)[C@H](CCC(=O)O)NC(=O)[C@@H](NC(=O)[C@H](CCC(=O)O)NC(C)=O)[C@@H](C)O)C(=O)N[C@@H](C)C(=O)N[C@@H](Cc1c[nH]c2ccccc12)C(=O)NCC(=O)N1CCC[C@H]1C(=O)N[C@H](C(=O)NCC(=O)N[C@@H](CC(=O)O)C(=O)N[C@@H](CCC(=O)O)C(=O)N[C@@H](Cc1c[nH]c2ccccc12)C(N)=O)[C@@H](C)O` (Ac-ETEFIAWGPTGDEW-NH2) yielded a Ki [3] of 54 ± 2 nM.
For `CC[C@H](C)[C@H](NC(=O)[C@H](Cc1ccccc1)NC(=O)[C@H](CCC(=O)O)NC(=O)[C@@H](NC(=O)[C@H](CCC(=O)O)NC(=O)[C@@H](NC(C)=O)[C@@H](C)O)[C@@H](C)O)C(=O)N[C@@H](C)C(=O)N[C@@H](Cc1c[nH]c2ccccc12)C(=O)NCC(=O)N1CCC[C@H]1C(=O)N[C@H](C(=O)NCC(=O)N[C@@H](CC(=O)O)C(=O)N[C@@H](CCC(=O)O)C(=O)N[C@@H](CC(=O)O)C(=O)N[C@@H](C)C(N)=O)[C@@H](C)O` (Ac-TETEFIAWGPTGDEDA-NH2), the Ki (Table 5, elongation and truncation scan of AJAP-1 binding epitope, read-out: Ki (nM) mean ± SEM) was 36 ± 1.7 nM.
Compound `CC[C@H](C)[C@H](NC(=O)[C@H](Cc1ccccc1)NC(=O)[C@H](CCC(=O)O)NC(=O)[C@@H](NC(=O)[C@H](CCC(=O)O)NC(C)=O)[C@@H](C)O)C(=O)N[C@@H](C)C(=O)N[C@@H](Cc1c[nH]c2ccccc12)C(=O)N[C@@H](Cc1ccc(O)cc1)C(=O)NCC(=O)N1CCC[C@H]1C(=O)N[C@H](C(=O)NCC(=O)N[C@@H](CC(=O)O)C(=O)N[C@@H](CCC(=O)O)C(=O)N[C@@H](CC(=O)O)C(N)=O)[C@@H](C)O` [ETEFIAWYGPTGDED] (Ac-ETEFIAWYGPTGDED-NH2) has a Ki [2] of 195 ± 7 nM.
In the case of `CC[C@H](C)[C@H](NC(=O)[C@H](C)NC(=O)[C@H](Cc1c[nH]c2ccccc12)NC(=O)[C@@H]1CCCN1C(C)=O)C(=O)N[C@H](C(=O)N[C@@H](Cc1c[nH]c2ccccc12)C(=O)NCC(=O)N1CCC[C@H]1C(=O)N[C@H](C(=O)N[C@H](C(=O)N[C@@H](CO)C(=O)N[C@@H](CCCNC(=N)N)C(=O)N[C@@H](C)C(=O)N[C@@H](CC(=O)O)C(N)=O)C(C)C)[C@@H](C)O)C(C)C` (Ac-PWAIVWGPTVSRAD-NH2), the Ki (Table 9, Ala-, D-amino acids and N-methylation scans of PIANPWT, read-out: Ki (nM) mean ± SEM) is reported as 600 ± 22 nM.
`CC[C@H](C)[C@H](NC(=O)[C@H](Cc1c[nH]c2ccccc12)NC(=O)[C@H](CC(=O)O)NC(=O)[C@H](CC(=O)O)NC(=O)[C@H](CC(=O)O)NC(=O)[C@H](CCC(=O)O)NC(C)=O)C(=O)N[C@@H](CC(=O)O)C(=O)N[C@@H](Cc1c[nH]c2ccccc12)C(=O)NCC(=O)N1CCC[C@H]1C(=O)N[C@H](C(=O)N[C@@H](CO)C(=O)N[C@@H](CC(=O)O)C(=O)N[C@@H](CC(=O)O)C(=O)N[C@@H](CC(=O)O)C(=O)N[C@@H](CCC(=O)O)C(=O)N[C@@H](C)C(=O)N[C@@H](C)C(=O)N[C@@H](C)C(=O)N[C@@H](CCCCN)C(=O)N[C@@H](CCCNC(=N)N)C(=O)N[C@@H](CCCNC(=N)N)C(=O)N[C@@H](CCCNC(=N)N)C(=O)N[C@@H](CCCNC(=N)N)C(=O)N[C@@H](CCCNC(=N)N)C(=O)N[C@@H](CCCNC(=N)N)C(=O)N[C@@H](CCCNC(=N)N)C(=O)N[C@@H](CCCNC(=N)N)C(N)=O)[C@@H](C)O` [Peptide 17-RL-R8] (Ac-EDDDWIDWGPTSDDDEAAAKRRRRRRRR-NH2) was tested, and the Ki [4] was 139 ± 2 nM and the Ki [5] was 139 ± 2 nM.
